Measured values from patent US20180132458A1, “TRANSGENIC ANIMAL MODELS FOR CYSTIC FIBROSIS” (THE REGENTS OF THE UNIVERSITY OF MICHIGAN, priority 2016, published 2018).

System: forskolin/IBMX-stimulated CFTR Cl current in ileum tissue
Test: Short-circuit current of freshly excised ileum tissue measured by Ussing chamber
Assay type: cell-based, rabbit
Details: CFTR+/+ rabbits
Description: (Panel A) Immunocytochemistry of lungs and small intestines from CFTR+/+ and CFTR−/− rabbits. Red: CFTR; blue: nuclei. (Panel B) Short circuit current measurements of small intestines from CFTR+/+ and CFTR−/− rabbits after treated 1 μM indomethcin.
CFTR expression in the airways and in the small intestines of wild-type and CFTR−/− rabbits was evaluated by immunoflorescence. […] Next, CFTR Cl secretion in these animals were examined. Ileum tissues from CFTR+/+ and CFTR−/− rabbits were used for CFTR functional assay. Short-circuit currents from these tissues with muscle layer on serosal side removed were measured by Ussing chamber. […] This situation was also observed in ferrets and pigs.

Compound	forskolin-stimulated current blocked (GlyH101 at 10 μM)	forskolin-stimulated current blocked
O=C(CNc1ccc2ccccc2c1)N/N=C/c1cc(Br)c(O)c(Br)c1O [GlyH101]	Only a small fraction	
CCCCNc1cc(C(=O)O)cc(S(N)(=O)=O)c1Oc1ccccc1 [bumetanide]		more than 50%
